In ChEMBL document CHEMBL5126511, “The evolution paths of some reprehensive scaffolds of RORγt modulators, a perspective from medicinal chemistry” (Eur J Med Chem, 2022):

How the values were obtained:
[1] = Metabolic stability in human liver microsomes assessed as clearance; type: ADME, Microsome; conditions: read-out: CLH
[2] = Metabolic stability in rat liver microsomes assessed as intrinsic clearance; type: ADME, Microsome; conditions: read-out: CLH

| Structure (SMILES) | microsomal CLint [1] [µL/min/mg] | microsomal CLint [2] [µL/min/mg] |
| --- | --- | --- |
| Cc1ncc(C(=O)Nc2cn3ccnc3c(CN3CCN(C(=O)C4CCCC4)[C@@H](C)C3)c2C)cn1 | 30 | – |
| Cc1ncc(C(=O)Nc2cn3ccnc3c(CN3CCN(c4noc(C(C)(C)C)n4)[C@@H](C)C3)c2C)cn1 | – | < 25 |
| Cc1ncc(C(=O)Nc2cc(Cl)cc(CN3CCN(C(=O)C4CCCC4)[C@@H](C)C3)c2C)cn1 | 97 | 33 |
